From publication PMC7211193, “Evaluation of absorption, distribution, metabolism, and excretion of [^14C]-rucaparib, a poly(ADP-ribose) polymerase inhibitor, in patients with advanced solid tumors” (Investigational New Drugs, 2019)
Where “and” joins values, the source holds several entries; their conditions need not be identical. Equal entries are not always repeated.

Experiments:
Type in all cases: in vivo, human
[1] = Plasma pharmacokinetics of unchanged rucaparib (LC-MS/MS) after a single oral dose of [14C]-rucaparib 600 mg
Experimental: (§1) Six patients received a single oral dose of [^14C]-rucaparib 600 mg (approximately 5.18 MBq or 140 μCi) on day 1 after fasting for 10 h and were confined at the study site for the collection of blood samples and excreta for a maximum of 12 days.
(§2) Blood samples were collected in K2 ethylenediaminetetraacetic acid (K2-EDTA) tubes at the following time points: 0 (predose), 1, 2, 3, 4, 8, 12, 24, 48, 72, 96, 120, and 144 h after administration. Blood samples were taken via an indwelling intravenous catheter or by direct vein puncture into appropriate tubes. Aliquots of blood samples were centrifuged at 1600–2000×g for 10 min at 4 °C, and supernatants were collected for plasma samples. All plasma and blood samples were stored at −70 °C until analysis. Plasma and blood samples were evaluated for total radioactivity (TRA) by liquid scintillation (LSC), parent drug concentrations by liquid chromatography (LC) with tandem mass spectrometry (MS/MS) analyses, and metabolite profiling by LC coupled to diode array ultraviolet (UV) detection and MS or radioactivity detection.
Plasma concentrations of rucaparib were determined by Q^2 Solutions (Ithaca, NY, USA) using a validated LC-MS/MS method as previously described. The concentration range for quantitation was 5–10,000 ng/mL.
(§3) Blood and plasma TRA data and the plasma concentration of rucaparib were used to determine the Cmax, tmax, AUC from time zero to time of last measurable concentration (AUC0-t), and AUC from time zero to infinity (AUC0-inf), apparent volume of distribution (Vd/F), apparent clearance (CL/F), and terminal half-life (t1/2). Phoenix WinNonlin software version 6.3 or higher (Certara, Princeton, NJ, USA) was used to run a noncompartmental method analysis on the PK data.

[2] = Total radioactivity (TRA) pharmacokinetics in plasma and blood by liquid scintillation counting; details: for Cmax, total radioactivity in plasma: patients N = 6
Experimental: as §1, §2
TRA analysis was performed on a Liquid Scintillation Counter Tri-Carb Model 3100TR (PerkinElmer). Aliquots of blood (300 μL), plasma (250 μL), and urine (1 mL) were transferred to scintillation vials. Blood samples were incubated at ≥60 °C with SOLVABLE (1 mL). After cooling to room temperature, EDTA (0.1 M, 100 μL) and hydrogen peroxide (225 μL) were added to dissolve blood cells, reduce foaming, and decrease color intensity. Finally, after incubation at ≥45 °C and ≥60 °C, Ultima Gold (≥5-fold) was added, and the samples were analyzed with LSC. For urine samples, Ultima Gold (≥5-fold) was added, and the samples were analyzed with LSC.
as §3

[3] = Safety assessment (CTCAE v4.03 adverse events)
Experimental: The safety of rucaparib was evaluated during the study. The National Cancer Institute Common Terminology Criteria for Adverse Events (CTCAE) grading system (version 4.03) was used to describe the severity of the adverse events (AEs) that occurred. Clinical laboratory, vital sign, 12-lead ECG, and physical examinations were also part of the safety assessment.

[4] = unchanged rucaparib by LC-MS/MS, single oral 600 mg, N = 6, mean ± SD
[5] = single oral [14C]-rucaparib 600 mg, N = 6, mean ± SD
[6] = single oral [14C]-rucaparib 600 mg, N = 6, mean ± SD, listed as rucaparib
[7] = single oral [14C]-rucaparib 600 mg, N = 6, median (range)

SMILES: CNCc1ccc(-c2[nH]c3cc(F)cc4c3c2CCNC4=O)cc1 [Rucaparib, rucaparib]
- AUC0-24h ratio of unlabeled rucaparib to TRA in plasma ([1]; LC-MS/MS versus LSC): 0.412
- AUC(0-inf) ([1]; human, plasma, unchanged rucaparib by LC-MS/MS, single oral 600 mg, N = 6, mean ± SD, read-out: AUC0-inf, rucaparib concentration in plasma): 9340 ± 3480 ng·h/mL
- AUC(0-t) ([1]; human, plasma, unchanged rucaparib by LC-MS/MS, single oral 600 mg, N = 6, mean ± SD, read-out: AUC0-t, rucaparib concentration in plasma): 8950 ± 3230 ng·h/mL
- Cmax ([1]; human, plasma, unchanged rucaparib by LC-MS/MS, single oral 600 mg, N = 6, mean ± SD, read-out: Cmax, rucaparib concentration in plasma): 428 ± 154 ng/mL
- Vd/F ([1]; human, plasma, unchanged rucaparib by LC-MS/MS, single oral 600 mg, N = 6, mean ± SD, read-out: Vd/F, rucaparib concentration in plasma): 2300 ± 490 L
- AUC0-24h/AUC0-inf ratio, plasma unchanged rucaparib ([1]; in vivo): 0.537
- Mean CL/F of rucaparib relative to that of TRA ([1]; plasma): approximately 3.8 fold
- Mean Vd/F of rucaparib relative to that of TRA ([1]; plasma): ~2.8 fold
- CL/F, rucaparib concentration in plasma [1, 4]: 73.9 ± 45.5 L/h
- t1/2, rucaparib concentration in plasma [1, 4]: 25.9 ± 10.1 h
- t1/2, rucaparib concentration in plasma ([1]; unchanged rucaparib by LC-MS/MS, single oral 600 mg, N = 6, mean ± SD, listed as rucaparib): > 25 h
- tmax, rucaparib concentration in plasma ([1]; unchanged rucaparib by LC-MS/MS, single oral 600 mg, N = 6, median (range)): 4 (0.933–8.00) h
- AUC0-24h/AUC0-inf ratio, blood TRA ([2]; in vivo): 0.563
- AUC0-24h/AUC0-inf ratio, plasma TRA ([2]; in vivo): 0.461
- AUC0-inf, total radioactivity in blood [2, 5]: 25,500 ± 5510 ng Eq h/mL
- AUC0-inf, total radioactivity in plasma [2, 5]: 30,000 ± 7810 ng Eq h/mL
- AUC0-t, total radioactivity in blood [2, 5]: 18,100 ± 5460 ng Eq h/mL
- AUC0-t, total radioactivity in plasma [2, 5]: 24,100 ± 8580 ng Eq h/mL
- Blood to plasma ratio of total radioactivity, AUC0-inf [2, 5]: 0.781 ± 0.041
- Blood to plasma ratio of total radioactivity, Cmax [2, 5]: 1.00 ± 0.12
- CL/F, total radioactivity in blood [2, 5]: 22.6 ± 2.22 L/h
- CL/F, total radioactivity in plasma [2, 5]: 19.6 ± 4.83 L/h
- Cmax, total radioactivity in blood [2, 5]: 882 ± 355 ng Eq/mL
- Vd/F, total radioactivity in blood [2, 5]: 911 ± 246 L
- Vd/F, total radioactivity in plasma [2, 5]: 814 ± 129 L
- t1/2, total radioactivity in blood [2, 5]: 28.3 ± 8.49 h
- t1/2, total radioactivity in plasma [2, 5]: 30.4 ± 8.89 h
- Blood to plasma ratio of total radioactivity, Cmax [2, 6]: 1.0
- t1/2, total radioactivity in blood [2, 6]: > 25 h
- t1/2, total radioactivity in plasma [2, 6]: > 25 h and 30.4 h
- tmax, total radioactivity in blood [2, 7]: 4 (0.933–8.00) h
- tmax, total radioactivity in plasma [2, 7]: 4 (0.933–8.00) h
- tmax, total radioactivity in blood ([2]; single oral [14C]-rucaparib 600 mg, N = 6, median (range), listed as [^14C]-rucaparib): approximately 4 h
- tmax, total radioactivity in blood ([2]; single oral [14C]-rucaparib 600 mg, N = 6, median (range), listed as rucaparib): 4 h
- Cmax, total radioactivity in plasma ([2]; single oral [14C]-rucaparib 600 mg, mean ± SD): 880 ± 309 ng Eq/mL
- Cmax, total radioactivity in plasma ([2]; single oral [14C]-rucaparib 600 mg, mean ± SD, listed as rucaparib): 880 ng Eq/mL
- Total treatment-emergent AEs (TEAEs) ([3]; events, in four of six patients, single oral 600 mg): five
- Relation, severity and seriousness of TEAEs ([3]; investigator assessment): No TEAE was considered to be related to the study drug by the investigators, had a severity of more than CTCAE grade 2, led to a withdrawal of the patient, or was a serious AE
- Patients with TEAE vomiting ([3]; two events in two of six patients): 33.3%
